Test results: patent US20100137449A1, “SUBSTITUTED 1,3-CYCLOPENTADIONE MULTI-TARGET PROTEIN KINASE MODULATORS OF CANCER, ANGIOGENESIS AND THE INFLAMMATORY PATHWAYS ASSOCIATED THEREWITH” (METAPROTEOMICS, LLC, priority 2007, published 2010)

Key:
Test in all cases: KinaseProfiler Assay
PAK5(h) = PAK5(h) (Homo sapiens, UniProt Q9P286)
Rsk1(h) = Rsk1(h) (Homo sapiens, UniProt Q15418)
PKCα(h) = PKCα(h) (Homo sapiens, UniProt P17252)
NEK6(h) = NEK6(h) (Homo sapiens, UniProt Q9HC98)
Pim-3(h) = Pim-3(h) (Homo sapiens, UniProt Q86V86)
CaMKIV(h) = target: T1, CaMKIV(h) (Homo sapiens, UniProt Q16566)
T1 sequence (Q16566 1-473): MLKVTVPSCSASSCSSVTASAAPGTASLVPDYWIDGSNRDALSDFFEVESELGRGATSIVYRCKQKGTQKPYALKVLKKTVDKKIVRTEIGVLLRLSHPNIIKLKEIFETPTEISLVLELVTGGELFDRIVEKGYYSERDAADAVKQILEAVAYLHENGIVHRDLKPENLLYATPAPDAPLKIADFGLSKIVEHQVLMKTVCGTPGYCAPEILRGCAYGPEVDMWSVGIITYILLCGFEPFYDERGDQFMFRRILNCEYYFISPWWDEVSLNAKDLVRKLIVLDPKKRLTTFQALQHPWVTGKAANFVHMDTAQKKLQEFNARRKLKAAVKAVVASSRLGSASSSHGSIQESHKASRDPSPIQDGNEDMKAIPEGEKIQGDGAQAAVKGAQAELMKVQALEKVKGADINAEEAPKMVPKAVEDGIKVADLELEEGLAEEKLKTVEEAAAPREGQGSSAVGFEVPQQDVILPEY

MKK7β(h) = target: T2, MKK7β(h) (Homo sapiens, UniProt O14733)
T2 sequence (O14733 1-419): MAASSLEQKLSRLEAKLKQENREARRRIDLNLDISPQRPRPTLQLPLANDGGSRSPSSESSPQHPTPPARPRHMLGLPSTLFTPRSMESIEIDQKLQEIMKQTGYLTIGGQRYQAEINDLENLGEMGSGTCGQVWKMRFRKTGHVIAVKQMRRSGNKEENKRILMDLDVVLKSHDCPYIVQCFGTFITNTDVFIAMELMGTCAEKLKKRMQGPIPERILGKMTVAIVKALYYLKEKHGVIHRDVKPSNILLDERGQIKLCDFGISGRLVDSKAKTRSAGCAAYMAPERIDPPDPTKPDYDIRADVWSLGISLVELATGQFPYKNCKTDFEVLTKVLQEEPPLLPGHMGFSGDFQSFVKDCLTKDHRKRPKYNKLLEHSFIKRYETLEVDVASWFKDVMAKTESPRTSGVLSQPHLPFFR

PRAK(h) = target: T3, PRAK(h) (Homo sapiens, UniProt Q8IW41)
T3 sequence (Q8IW41 1-473): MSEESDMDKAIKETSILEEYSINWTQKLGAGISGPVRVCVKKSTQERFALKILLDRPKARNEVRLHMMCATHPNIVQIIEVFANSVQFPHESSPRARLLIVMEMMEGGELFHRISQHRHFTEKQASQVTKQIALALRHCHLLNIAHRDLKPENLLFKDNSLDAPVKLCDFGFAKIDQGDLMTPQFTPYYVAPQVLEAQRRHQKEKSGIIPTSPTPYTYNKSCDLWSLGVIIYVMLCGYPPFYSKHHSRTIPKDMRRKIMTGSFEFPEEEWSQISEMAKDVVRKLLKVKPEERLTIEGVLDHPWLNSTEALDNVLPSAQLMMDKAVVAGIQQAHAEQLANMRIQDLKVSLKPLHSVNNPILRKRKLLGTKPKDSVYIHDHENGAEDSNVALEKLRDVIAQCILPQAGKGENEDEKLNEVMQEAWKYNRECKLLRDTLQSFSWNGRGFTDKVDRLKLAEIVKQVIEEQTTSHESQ

CK1γ1(h) = CK1γ1(h) (Homo sapiens, UniProt Q9HCP0)
Chain of CK1γ1(h) (Q9HCP0 whole entry): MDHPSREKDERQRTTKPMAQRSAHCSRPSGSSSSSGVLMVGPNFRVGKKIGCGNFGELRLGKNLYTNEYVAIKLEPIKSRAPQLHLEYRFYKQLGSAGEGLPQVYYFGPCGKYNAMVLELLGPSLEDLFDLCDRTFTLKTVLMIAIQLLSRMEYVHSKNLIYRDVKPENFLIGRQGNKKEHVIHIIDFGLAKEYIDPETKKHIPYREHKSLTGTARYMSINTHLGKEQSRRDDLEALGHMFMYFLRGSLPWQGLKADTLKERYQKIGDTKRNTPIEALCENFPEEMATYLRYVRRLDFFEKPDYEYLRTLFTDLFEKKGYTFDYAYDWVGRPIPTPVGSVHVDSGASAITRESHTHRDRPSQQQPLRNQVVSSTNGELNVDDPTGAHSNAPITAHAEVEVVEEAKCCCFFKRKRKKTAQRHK

Chain of Rsk1(h) (Q15418 whole entry): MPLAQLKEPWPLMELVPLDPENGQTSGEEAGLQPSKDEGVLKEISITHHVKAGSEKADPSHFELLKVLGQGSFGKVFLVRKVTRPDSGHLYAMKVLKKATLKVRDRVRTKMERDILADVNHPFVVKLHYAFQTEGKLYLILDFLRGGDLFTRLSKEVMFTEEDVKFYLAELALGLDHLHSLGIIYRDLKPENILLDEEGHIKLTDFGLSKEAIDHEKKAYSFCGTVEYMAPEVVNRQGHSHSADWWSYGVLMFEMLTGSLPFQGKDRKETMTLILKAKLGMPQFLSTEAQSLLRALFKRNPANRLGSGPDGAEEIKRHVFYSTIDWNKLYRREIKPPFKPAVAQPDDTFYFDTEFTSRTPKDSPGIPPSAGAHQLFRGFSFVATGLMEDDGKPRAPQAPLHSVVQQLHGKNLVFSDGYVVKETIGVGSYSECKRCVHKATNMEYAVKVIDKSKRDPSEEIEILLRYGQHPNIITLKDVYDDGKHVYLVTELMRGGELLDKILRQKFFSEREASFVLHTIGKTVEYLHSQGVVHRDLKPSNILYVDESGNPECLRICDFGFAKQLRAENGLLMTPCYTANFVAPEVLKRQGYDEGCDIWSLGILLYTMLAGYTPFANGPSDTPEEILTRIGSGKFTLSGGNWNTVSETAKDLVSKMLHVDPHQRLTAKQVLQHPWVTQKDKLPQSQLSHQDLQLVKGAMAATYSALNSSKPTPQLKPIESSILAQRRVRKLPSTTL
Chain of PAK5(h) (Q9P286 whole entry): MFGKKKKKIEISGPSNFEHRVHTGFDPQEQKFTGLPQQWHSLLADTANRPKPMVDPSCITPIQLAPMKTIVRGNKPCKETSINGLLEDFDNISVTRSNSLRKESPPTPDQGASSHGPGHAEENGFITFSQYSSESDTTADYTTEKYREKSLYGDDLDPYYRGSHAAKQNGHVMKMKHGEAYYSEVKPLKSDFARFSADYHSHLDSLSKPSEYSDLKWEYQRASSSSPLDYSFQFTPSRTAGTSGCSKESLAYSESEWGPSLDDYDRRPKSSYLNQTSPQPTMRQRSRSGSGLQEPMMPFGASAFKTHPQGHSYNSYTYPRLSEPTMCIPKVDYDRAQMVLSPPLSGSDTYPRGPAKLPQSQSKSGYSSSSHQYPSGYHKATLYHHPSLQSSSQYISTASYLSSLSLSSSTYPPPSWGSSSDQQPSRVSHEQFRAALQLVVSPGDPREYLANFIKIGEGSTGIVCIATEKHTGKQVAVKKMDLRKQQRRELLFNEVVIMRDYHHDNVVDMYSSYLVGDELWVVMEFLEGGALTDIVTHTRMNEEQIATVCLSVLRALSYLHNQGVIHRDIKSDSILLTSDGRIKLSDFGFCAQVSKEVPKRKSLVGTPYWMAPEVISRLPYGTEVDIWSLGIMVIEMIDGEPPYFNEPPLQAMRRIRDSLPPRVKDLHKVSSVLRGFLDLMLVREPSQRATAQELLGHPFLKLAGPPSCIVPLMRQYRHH
Chain of NEK6(h) (Q9HC98 whole entry): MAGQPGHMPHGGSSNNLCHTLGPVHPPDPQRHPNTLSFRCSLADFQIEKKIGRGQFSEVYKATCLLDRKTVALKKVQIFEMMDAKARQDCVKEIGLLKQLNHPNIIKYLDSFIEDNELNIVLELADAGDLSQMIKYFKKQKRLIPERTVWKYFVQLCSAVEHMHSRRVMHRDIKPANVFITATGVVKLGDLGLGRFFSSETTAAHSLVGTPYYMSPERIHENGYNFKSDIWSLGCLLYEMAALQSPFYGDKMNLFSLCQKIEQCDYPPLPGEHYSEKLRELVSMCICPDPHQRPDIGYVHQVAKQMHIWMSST

CC(C)CCC(=O)[C@]1(O)C(O)=C(C(=O)C(C)C)C(=O)[C@H]1CCC(C)C [TH2, tetrahydroiso-cohumulone]
kinase inhibition (PAK5(h); 1 μg/ml): 106% of control
kinase inhibition (PAK5(h); 5 μg/ml): 105% of control
kinase inhibition (PAK5(h); 25 μg/ml): 91% of control
kinase inhibition (PAK5(h); 50 μg/ml): 93% of control
kinase inhibition (PAK5(h); 100 μg/ml): 61% of control
kinase inhibition (Rsk1(h); 1 μg/ml): 97% of control
kinase inhibition (Rsk1(h); 5 μg/ml): 95% of control
kinase inhibition (Rsk1(h); 25 μg/ml): 65% of control
kinase inhibition (Rsk1(h); 50 μg/ml): 53% of control
kinase inhibition (Rsk1(h); 100 μg/ml): 32% of control
kinase inhibition (PKCα(h); 1 μg/ml): 103% of control
kinase inhibition (PKCα(h); 5 μg/ml): 99% of control
kinase inhibition (PKCα(h); 25 μg/ml): 98% of control
kinase inhibition (PKCα(h); 50 μg/ml): 98% of control
kinase inhibition (PKCα(h); 100 μg/ml): 71% of control
kinase inhibition (NEK6(h); 1 μg/ml): 103% of control
kinase inhibition (NEK6(h); 5 μg/ml): 100% of control
kinase inhibition (NEK6(h); 25 μg/ml): 79% of control
kinase inhibition (NEK6(h); 50 μg/ml): 67% of control
kinase inhibition (NEK6(h); 100 μg/ml): 53% of control
kinase inhibition (Pim-3(h); 1 μg/ml): 104% of control
kinase inhibition (Pim-3(h); 5 μg/ml): 104% of control
kinase inhibition (Pim-3(h); 25 μg/ml): 72% of control
kinase inhibition (Pim-3(h); 50 μg/ml): 70% of control
kinase inhibition (Pim-3(h); 100 μg/ml): 64% of control
kinase inhibition (CaMKIV(h); 1 μg/ml): 117% of control
kinase inhibition (CaMKIV(h); 5 μg/ml): 126% of control
kinase inhibition (CaMKIV(h); 25 μg/ml): 86% of control
kinase inhibition (CaMKIV(h); 50 μg/ml): 69% of control
kinase inhibition (CaMKIV(h); 100 μg/ml): 52% of control
kinase inhibition (MKK7β(h); 1 μg/ml): 100% of control
kinase inhibition (MKK7β(h); 5 μg/ml): 110% of control
kinase inhibition (MKK7β(h); 25 μg/ml): 111% of control
kinase inhibition (MKK7β(h); 50 μg/ml): 82% of control
kinase inhibition (MKK7β(h); 100 μg/ml): 72% of control
kinase inhibition (PRAK(h); 1 μg/ml): 66% of control
kinase inhibition (PRAK(h); 5 μg/ml): 45% of control
kinase inhibition (PRAK(h); 25 μg/ml): 19% of control
kinase inhibition (PRAK(h); 50 μg/ml): 24% of control
kinase inhibition (PRAK(h); 100 μg/ml): 19% of control
kinase inhibition (CK1γ1(h); 1 μg/ml): 100% of control
kinase inhibition (CK1γ1(h); 5 μg/ml): 101% of control
kinase inhibition (CK1γ1(h); 25 μg/ml): 88% of control
kinase inhibition (CK1γ1(h); 50 μg/ml): 73% of control
kinase inhibition (CK1γ1(h); 100 μg/ml): 48% of control
